Patent US3955959A, “Herbicide for use in transplanted rice” (priority 1974, dated 1976)
“And” between values parts separate entries of the source, which are not always exact repeats. Equal values may be shown once.

Columns and labels:
[1] = test system: Alisma canaliculatum, Aneilema japonica, Monochoria vaginalis, Commelina communis; assay: Weeds effectively treated to date: monocotyledonous broadleaf weeds; format: in vivo
[2] = test system: Mv (Monochoria vaginalis); assay: Example 5 field test, weed control, JAAPR, Japan; format: in vivo
Experimental: The rice seedlings were grown to the 1.7 leaf stage for infant seedlings and to the 5.5 leaf stage for ordinary seedlings. Two days after puddling the soil in which the seedlings were to be transplanted, both infant and ordinary seedlings were transplanted into plots 8.5 m^2.
The weed symbol "Obw" represents "other broadleaf weeds" of unspecified identity.

[3] = test system: Broadleaf: Mv, Sz (Monochoria vaginalis, Sphenoclea zeylanica); assay: Example 3 field test on Dapog rice, weed control, Munoz, Philippines; format: in vivo, Monochoria vaginalis and Sphenoclea zeylanica; details: obs. 42 DAT
From the text: Treatments were replicated four times.

[4] = test system: Echinochloa crusgalli and Monochoria vaginalis; assay: Example 2 field test, overall; format: in vivo
[5] = test system: Brachiaria platyphylla, Digitaria spp, Echinochloa spp, Eleusine indica, Leptochloa spp and Setaria spp; assay: Weeds effectively treated to date: grasses; format: in vivo
transplanted rice [6] = assay: Example 2 field test, rice yield; format: in vivo, rice (Tainan No. 5, japonica)
Experimental: (§1) In the tests described in the tables below, the herbicides were formulated and used in granular form in conventional manner. […] The commercial herbicide used was a granular product having 5% active ingredient.
(§2) In the field tests of the herbicide of this invention with transplanted rice, the rice seedlings were grown in conventional manner, by seeding the rice in a typical seedbed of sandy loam to clay soil of the country wherein the test was conducted. For laboratory and greenhouse work the seedlings were obtained by seeding rice in a mixture of soil, e.g., Ray silt loam, and peat in wood flats. For purposes of testing the herbicides on younger rice seedlings (infant or Dapog) the rice was usually allowed to grow for 6-15 days before lifting for transplanting. Older (ordinary) rice plants were usually grown for a period of about 2-3 weeks, or as much as about 7 weeks before lifting. Since the period of growth is dependent upon climatic conditions, a better measure of when to transplant the rice seedling is the leaf stage of growth; for infant or Dapog rice the seedling is lifted at the 1.5-2 leaf stage of growth, and for ordinary seedlings at the 2.5-5 leaf stage. The seedlings were then transplanted to the test plots for evaluation of the herbicide for injury against weed species present with the transplanted rice. The herbicides were then applied to the growth medium of the weeds and transplant rice, either preemergent or postemergent with respect to the weeds and postemergent with respect to the transplanted rice. Application times are designated in the tables as "DAT", meaning "days after transplant". Application rates given in the tables refer to the amount of active ingredient used.
Rice seedlings (ordinary) of Tainan No. 5 variety (japonica) were transplanted at 19 days of growth. Granular formulations of Herbicides A and B were applied at the 1 leaf stage of grass weed (4 DAT) and 2.5 leaf stage of grass weed (10 DAT). Observations were made at 63 DAT and results reported in Table 2 as an average of 3 replications.

[7] = test system: direct-seeded rice plants; details: 1.0 lb/ac and 0.25 lb/ac; '620 and '945 Table I; cited from earlier work
[8] = test system: weeds in transplanted rice; assay: Field tests / general herbicidal activity in transplanted rice; format: in vivo; details: for latest/optimum application stage of weeds: field tests
[9] = test system: Cyperus difformis, Cyperus iria, Cyperus serotinus, Eleocharis acicularis, Eleocharis kuroguwai, Fimbristylis spp, Scirpus hotarui and Scirpus spp; assay: Weeds effectively treated to date: sedges; format: in vivo
Dapog transplanted rice = assay: Example 3 field test, rice yield; format: in vivo
Experimental: as §1, §2
Eleven (11) day-old Dapog seedlings were transplanted and treated at 5 DAT and 14 DAT with Herbicides A and B. The plots were overseeded with Echinochloa crusgalli seeds at 2 kgs/ha prior to transplanting. Treatments were replicated four times.

[10] = test system: pigweed, annual morning glory, smartweed, cocklebur, Italian ryegrass, crop rye, sorghum, quack grass and nutsedge; assay: Example 9 soil life bioassay, greenhouse; format: in vivo; details: for Soil Longevity: 5 lbs/Ac (5.605 kg/ha), Ray silt loam
Experimental: In this example, additional tests were run to compare the relative soil life of Herbicides A and B under greenhouse conditions.
In the soil life tests, a standardized procedure involving a series of bioassay periods, or cycles, was used. In the procedure, an arbitrary, selected mixture of four grasses, four broadleaf weeds and a sedge were seeded into Ray silt loam soil previously prepared and treated with the herbicide under test and periodically watered by sub-irrigation. After a six-week bioassay period, (i.e., the first cycle), the plants were evaluated visually for herbicidal activity. That soil in which at least 75% of three or more grass and/or broadleaf species or of the sedge alone were controlled at the end of the cycle, was advanced to a second cycle, or six-week bioassay period. The second cycle involved the same procedure as the first cycle, except that additionally, the equivalent of 50 lbs/ac (56.05 Kgs/ha) of nitrogen was mixed into the cover layer of the soil which was reseeded with the mixture of plants mentioned earlier. The plants were evaluated for herbicidal activity at the end of this six-week period and, again, the soil in which at least 75% of the grasses or broadleaf species or of the sedge alone were controlled was advanced to a third cycle. The foregoing procedure was repeated until herbicidal activity fell below that required for initiation of a new cycle.
For purposes of the soil life tests, the following spectrum of plants were used as indicators: pigweed, annual morning glory, smartweed, cocklebur, Italian ryegrass, crop rye, sorghum, quack grass and nutsedge.

transplanted rice [11] = assay: Crop safety to transplanted rice, general; format: in vivo

CCCCOCN(C(=O)CCl)c1c(C)cccc1C(C)(C)C [Herbicide A, n-(butoxymethyl)-6'-tert-butyl-2-chloro-o-acetotoluidide]
effectively treated monocotyledonous broadleaf weeds [1]: effectively treated | % Weed Control (Mv) ([2]; 1.0 kg/ha, 15 DAT, infant seedlings): 67% | % Weed Control (Mv) ([2]; 1.0 kg/ha, 15 DAT, ordinary seedlings): 62% | % Weed Control (Mv) ([2]; .25 kg/ha, 2 DAT, infant seedlings): 80% | % Weed Control (Mv) ([2]; .25 kg/ha, 2 DAT, ordinary seedlings): 80% | % Weed Control (Mv) ([2]; .5 kg/ha, 7 DAT, infant seedlings): 60% | % Weed Control (Mv) ([2]; .5 kg/ha, 7 DAT, ordinary seedlings): 62% | % Weed control, Broadleaf (Mv,Sz) ([3]; 5 DAT, 1.0 kg/ha): 100% | % Weed control, Broadleaf (Mv,Sz) ([3]; 5 DAT, 2.0 kg/ha): 100% | % Weed control, Broadleaf (Mv,Sz) ([3]; 5 DAT, .25 kg/ha): 100% | % Weed control, Broadleaf (Mv,Sz) ([3]; 5 DAT, .5 kg/ha): 100% | % Weed control, Broadleaf (Mv,Sz) ([3]; 14 DAT, 1.0 kg/ha): 60% | % Weed control, Broadleaf (Mv,Sz) ([3]; 14 DAT, 2.0 kg/ha): 60% | % Weed control, Broadleaf (Mv,Sz) ([3]; 14 DAT, .25 kg/ha): 0% | % Weed control, Broadleaf (Mv,Sz) ([3]; 14 DAT, .5 kg/ha): 60% | period of application vs Herbicide B ([4]; Example 2): could be applied over a longer period of time | fold more active than Herbicide B ([4]; control of Echinochloa crusgalli and Monochoria vaginalis): 3-6 fold | effectively treated grasses [5]: effectively treated | Yield (% of H.W. Check) (transplanted rice [6]; in vivo): 97% and 105% and 107% and 81% and 91% and 100% and 73% | rice yield depression (transplanted rice [6]; in vivo): rice yield depression | phytotoxicity to direct-seeded rice [7]: severe phytotoxicity | latest/optimum application stage of weeds [8]: 2-2.5 leaf stage | control of undesirable vegetation ([8]; monocotyledons and dicotyledons): fair to excellent control | herbicidal activity in transplanted rice ([8]; presence of transplanted rice): superior herbicidal activity | selectivity vs Herbicide B in transplant rice ([8]; transplant rice cultures): more selective | effectively treated sedges [9]: effectively treated | Yield (% of H.W. Check) (Dapog transplanted rice; in vivo): 182% and 177% and 139% and 104% and 93% and 98% and 113% | rice yield vs hand weeded check (Dapog transplanted rice; in vivo): statistically similar to the hand weeded check | yield in words (Dapog transplanted rice; in vivo): outstanding | Soil Longevity [10]: 29 Weeks | residual preemergence activity longer than Herbicide B ([10]; equal rates, 5 lbs/Ac): about 50% | safe application timing (transplanted rice [11]; 2 days before transplant (Table 6) to 14 DAT (Table 4)): can safely be applied preemergence | crop injury, transplanted rice (transplanted rice [11]; recommended use rates): negligible crop injury

CCCCOCN(C(=O)CCl)c1c(CC)cccc1CC [Herbicide B, n-(butoxymethyl)-2',6'-diethyl-2-chloroacetanilide, reference compound]
% Weed Control (Mv) ([2]; 1.5 kg/ha, 7 DAT, infant seedlings): 66% | % Weed Control (Mv) ([2]; 1.5 kg/ha, 7 DAT, ordinary seedlings): 86% | % Weed control, Broadleaf (Mv,Sz) ([3]; 5 DAT, 1.0 kg/ha): 100% | % Weed control, Broadleaf (Mv,Sz) ([3]; 5 DAT, 1.5 kg/ha): 100% | % Weed control, Broadleaf (Mv,Sz) ([3]; 5 DAT, 3.0 kg/ha): 100% | % Weed control, Broadleaf (Mv,Sz) ([3]; 14 DAT, 1.0 kg/ha): 0% | % Weed control, Broadleaf (Mv,Sz) ([3]; 14 DAT, 1.5 kg/ha): 0% | % Weed control, Broadleaf (Mv,Sz) ([3]; 14 DAT, 3.0 kg/ha): 70% | Yield (% of H.W. Check) (transplanted rice [6]; 4 DAT, 1.0 kg/ha): 110% | Yield (% of H.W. Check) (transplanted rice [6]; 4 DAT, 1.5 kg/ha): 103% | Yield (% of H.W. Check) (transplanted rice [6]; 4 DAT, 3.0 kg/ha): 99% | Yield (% of H.W. Check) (transplanted rice [6]; 10 DAT, 1.0 kg/ha): 97% | Yield (% of H.W. Check) (transplanted rice [6]; 10 DAT, 1.5 kg/ha): 98% | Yield (% of H.W. Check) (transplanted rice [6]; 10 DAT, 3.0 kg/ha): 99% | latest/optimum application stage of weeds [8]: 1 leaf stage | yield vs control (Dapog transplanted rice; 1 kg/ha, 5 DAT): significantly higher than the control | Yield (% of H.W. Check) (Dapog transplanted rice; 5 DAT, 1.0 kg/ha): 142% | Yield (% of H.W. Check) (Dapog transplanted rice; 5 DAT, 1.5 kg/ha): 107% | Yield (% of H.W. Check) (Dapog transplanted rice; 5 DAT, 3.0 kg/ha): 101% | Yield (% of H.W. Check) (Dapog transplanted rice; 14 DAT, 1.0 kg/ha): 83% | Yield (% of H.W. Check) (Dapog transplanted rice; 14 DAT, 1.5 kg/ha): 89% | Yield (% of H.W. Check) (Dapog transplanted rice; 14 DAT, 3.0 kg/ha): 93% | Soil Longevity [10]: 20 Weeks
